This is an account of results in patent US20230310477A1, “PHARMACEUTICAL COMPOSITION COMPRISING ABELIOPHYLLUM DISTICHUM EXTRACT AS ACTIVE INGREDIENT FOR TREATING ANDROGEN RECEPTOR-RELATED DISEASE” (priority 2020, published 2023).

Assay [1] concerns steroid receptor coactivator 1 (SRC1). In words: Western blotting of SRC1 in prostate tissue of BPH animal model. The format is in vivo, SD rats. Conditions: oral 1 mg/kg or 10 mg/kg, 4 weeks; depending on intake concentration. The method, then: (§1) All experiments were conducted in an aseptic environment. Three days after surgical recovery for the BPH-induced group (BPH), testosterone was dissolved in corn oil and then subcutaneously injected daily at 3 mg/kg, inducing BPH. For an Abeliophyllum distichum leaf ethanol extract-administered group (BPH+ADLE), an Abeliophyllum distichum leaf ethanol extract was dissolved in sterile distilled water and orally administered using a zonde at 100 mg/kg for 4 weeks. […]
(§2) For animal experimental groups, protein expression of androgen signaling-related factors, 5α-reductase 2 (5AR2), steroid receptor coactivator 1 (SRC1), an estrogen receptor (ER), and a prostate-specific antigen (PSA), were analyzed. […] Subsequently, bands were then detected using an Azure c300 imaging system (Azure Biosystems) by chemiluminescence with an HPR substrate (Advanta Inc., San Jose, CA, USA). Band intensities were quantified by setting the area of each sample using ImageJ software (NIH ver. 1.48, USA) and then setting the area of corresponding β-actin in the same manner as used above, and dividing the area of β-actin by the area of each sample.
Background: A western blot detects proteins with antibodies after separation by electrophoresis.

A further assay deals with BPH animal models. Description: Prostate indexes in BPH animal model. The format is in vivo, SD rats. Particulars: 4 weeks. The method, then: All experiments were conducted in an aseptic environment. Three days after surgical recovery for the BPH-induced group (BPH), testosterone was dissolved in corn oil and then subcutaneously injected daily at 3 mg/kg, inducing BPH. For an Abeliophyllum distichum leaf ethanol extract-administered group (BPH+ADLE), an Abeliophyllum distichum leaf ethanol extract was dissolved in sterile distilled water and orally administered using a zonde at 100 mg/kg for 4 weeks. For a saw palmetto-administered group (BPH+Saw) as a positive control, saw palmetto was dissolved in sterile distilled water and orally administered at 100 mg/kg, and for a finasteride-administered group (BPH+Fi), finasteride was orally administered using a zonde at 1 mg/kg per day for 4 weeks. After the experiment, the rats were sacrificed using zoletil, blood samples were collected through heart puncture, and serum was then separated and stored at −80° C. The prostate was separated and weighed using RNAse-free surgical tools, and stored at −80° C., followed by western blotting.
Meanwhile, isoquercetin (IQ) administration was also performed in the same manner and using the same controls as described above, and for a low concentration-administered group (BPH+IQ1), IQ was dissolved in sterile distilled water and then orally administered at 1 mg/kg, and for a high concentration-administered group (BPH+IQ10), IQ was dissolved in sterile distilled water and then orally administered using a zonde at 10 mg/kg for 4 weeks.

The test system of another assay is 5α-reductase 2 (5AR2). Description: Western blotting of 5AR2 in prostate tissue of BPH animal model. The format is in vivo, SD rats. Conditions: oral 1 mg/kg or 10 mg/kg, 4 weeks; depending on intake concentration. As for the experimental part: as §1, §2
For assay [2], the system named is PI3K. Description: Western blotting of testosterone-induced PI3K expression in prostatic cells. The format is cell-based. Conditions: depending on the concentration of isoquercetin.
A further assay concerns AR. In words: Western blotting of AR in prostate tissue of BPH animal model. The format is in vivo, SD rats. Conditions: oral 1 mg/kg or 10 mg/kg, 4 weeks; depending on intake concentration.
Assay [3] has as its system PI3K. In words: Western blotting of PI3K expression in testosterone-treated BPH-1 cells. The format is cell-based. Conditions: testosterone 100 nM, 25, 50 and 100 μM, 24 hours, concentration dependent.
In a further assay the test system is androgenic receptor (AR). Description: Western blotting of testosterone-induced AR expression in LNCaP cells. The format is cell-based. The method, then: LNCaP cells were treated with testosterone propionate (TP) to induce androgenic receptor signaling, treated with Abeliophyllum distichum leaf hot water (D.W.), ethanol (EtOH), and hexane (Hexane) extracts, followed by confirming the efficacy of inhibiting the expression of an androgenic receptor (AR, SantaCruz), 5 alpha reductase (5AR2, ABCam), and prostate-specific antigen (PSA, SantaCruz) to compare the inhibitory effect on androgenic receptor signaling-related factors per Abeliophyllum distichum leaf extract LNCaP cells in LNCaP cells. The LNCaP cells (2×10^6) were seeded in 6-well plates, and treated with 100 nM testosterone propionate (TP, Tokyo Chemical Industry) and 100 μg/mL each of Abeliophyllum distichum leaf hot water (D.W.), ethanol (EtOH), and hexane (Hexane) extracts for 24 hours. […] After finishing the treatment of the cells, an androgenic receptor signaling-inhibitory effect was analyzed using western blotting. […] Bands were then detected using an Azure c300 imaging system (Azure Biosystems) by chemiluminescence with an HPR substrate (Advansta Inc., San Jose, CA, USA). Band intensities were quantified by setting the area of each sample using ImageJ software (NIH ver. 1.48, USA) and then setting the area of corresponding β-actin in the same manner as used above, and dividing the area of β-actin by the area of each sample. […]

In another assay the test system is cyclin D1. In words: Western blotting of cyclin D1 expression in testosterone-treated BPH-1 cells. The format is cell-based. Conditions: testosterone 100 nM, 25, 50 and 100 μM, 24 hours, concentration dependent.
Another assay concerns PCNA. In words: Western blotting of PCNA expression in testosterone-treated BPH-1 cells. The format is cell-based. Conditions: testosterone 100 nM, 25, 50 and 100 μM, 24 hours, concentration dependent.
For assay [4], the system named is prostate-specific antigen (PSA). Description: Western blotting of testosterone-induced PSA expression in LNCaP cells. The format is cell-based. Particulars: compared among IQ, Rutin, CA and IR.
Protocol: (§3) The LNCaP cells (2×10^6) were seeded in 6-well plates, and treated with 100 nM testosterone propionate (TP, Tokyo Chemical Industry) and 100 μg/mL each of Abeliophyllum distichum leaf hot water (D.W.), ethanol (EtOH), and hexane (Hexane) extracts for 24 hours. Here, a group treated with 1 μg/mL finasteride (Fi), which is an androgen inhibiting drug, was used as a positive control. After finishing the treatment of the cells, an androgenic receptor signaling-inhibitory effect was analyzed using western blotting. First, the cells were lysed in a protein inhibitor cocktail (Sigma)-containing radioimmunoprecipitation assay (RIPA) buffer, and a protein concentration was estimated using a BCA assay, followed by electrophoresis in a 12% SDS polyacrylamide gel. The gel was then transferred to a membrane using Mini Trans-Blot cells (Bio rad). Subsequently, the membrane was treated with primary antibodies at 4° C. for 12 hours. […] Bands were then detected using an Azure c300 imaging system (Azure Biosystems) by chemiluminescence with an HPR substrate (Advansta Inc., San Jose, CA, USA). Band intensities were quantified by setting the area of each sample using ImageJ software (NIH ver. 1.48, USA) and then setting the area of corresponding β-actin in the same manner as used above, and dividing the area of β-actin by the area of each sample.
Another assay relates to 5 alpha reductase (5AR2). Description: Western blotting of testosterone-induced 5AR2 expression in LNCaP cells. The format is cell-based.
Setting [5] is: oral 1 mg/kg or 10 mg/kg, compared to the BPH-induced model.
[6] abbreviates: compared among IQ, Rutin, CA and IR.
[7] abbreviates: testosterone-induced, depending on the concentration of isoquercetin.

Molecules are shown by their SMILES.

Protocol for 5 alpha reductase (5AR2): as §3

As for `O=c1c(O[C@@H]2O[C@H](CO)[C@@H](O)[C@H](O)[C@H]2O)c(-c2ccc(O)c(O)c2)oc2cc(O)cc(O)c12` [isoquercetin, 3-(β-D-glucopyranosyloxy)-3′,4′,5,7-tetrahydroxyflavone], in [1], the “expression level of SRC-1 in prostate tissue” value was “reduced”. The prostate index result with BPH animal models (oral 1 mg/kg and 10 mg/kg, depending on concentration) is reported as “lowered”. In addition, in the assay with BPH animal models (setting [5]), the prostate weight result is given as “significantly reduced” and the “ratio of the prostate weight to a body weight” value was “significantly decreased”. Further, in the assay on 5α-reductase 2 (5AR2), the “expression level of 5AR2 in prostate tissue” value was “reduced”. Also, the “expression of PI3K” value in the assay on PI3K [2] was “significantly reduced”. The “expression level of AR in prostate tissue” value in the assay with AR is given as “reduced”. Moreover, the PI3K expression result with PI3K [3] was “significantly reduced”. The “effect on testosterone-induced AR expression level among four functional ingredient candidates” value with androgenic receptor (AR) (setting [6]) was “most excellent effect”. Moreover, the “expression of AR” value with androgenic receptor (AR) (setting [7]) is reported as “significantly reduced”. In the assay on cyclin D1, the “cyclin D1 expression” value is “significantly reduced”. The PCNA expression entry with PCNA was “significantly reduced”. Moreover, the “effect on testosterone-induced PSA expression level among four functional ingredient candidates” value in assay [4] was “most excellent effect”. The “effect on testosterone-induced 5AR2 expression level among four functional ingredient candidates” value in the assay on 5 alpha reductase (5AR2) (setting [6]) is “most excellent effect”. For the same compound, the “expression of 5AR2” value in the assay on 5 alpha reductase (5AR2) (setting [7]) is reported as “significantly reduced”.
